# “Also recorded” adds a separate entry of the source. Like-named read-outs stand apart in the source and are kept apart here.
# B1: MDX-001: murine anti-ANXA1 antibody, parent of MDX-124; light and heavy chains of SEQ ID NOs: 30 and 31 (antibody, listed as Mus musculus)
# heavy: QVQLQQSGPELVRPGTSVKMSCKASGYTFTNYWIGWAKQRPGHGLEWIGDIYPGGDYTNYNEKFKGKATLTADKSSSTAYMQFSSLTSEDSAIYYCARWGLGYYFDYWGQGITLTVSSAKTTPPSVYPLAPGCGDTTGSSVTLGCLVKGYFPESVTVTWNSGSLSSSVHTFPALLQSGLYTMSSSVTVPSSTWPSQTVTCSVAHPASSTTVDKKLEPSGPISTINPCPPCKECHKCPAPNLEGGPSVFIFPPNIKDVLMISLTPKVTCVVVDVSEDDPDVQISWFVNNVEVHTAQTQTHREDYNSTIRVVSTLPIQHQDWMSGKEFKCKVNNKDLPSPIERTISKIKGLVRAPQVYILPPPAEQLSRKDVSLTCLVVGFNPGDISVEWTSNGHTEENYKDTAPVLDSDGSYFIYSKLNMKTSKWEKTDSFSCNVRHEGLKNYYLKKTISRSPGK
# light: DAVMTQTPLSLPVSLGDQVSISCRSSQSLENSNGKTYLNWYLQKPGQSPQLLIYGVSNRFSGVLDRFSGSGSGTDFTLKISRVEAEDLGVYFCLQVTHVPYTFGGGTKLEIKRADAAPTVSIFPPSSEQLTSGGASVVCFLNNFYPKDINVKWKIDGSERQNGVLNSWTDQDSKDSTYSMSSTLTLTKDEYERHNSYTCEATHKTSTSPIVKSFNRNEC
# Columns and labels:
# [1] = tested on: PANC-1 pancreatic cancer cell line; experiment: MTT cell proliferation assay, PANC-1; assay type: cell-based, human; settings: for IC50: Homo sapiens, PANC-1, MTT
# Procedure: (§1) The cell lines were obtained from Public Health England Culture Collections. MIA-PaCa-2 is a human pancreatic carcinoma cell line; PANC-1 is a human pancreatic epithelioid carcinoma cell line.
# (§2) Assays were performed in triplicate.
# (§3) Cells were then cultured for 24 hr prior to assay, then cell proliferation was measured.
# (§4) With both cell lines 5FU was used at its IC50. The IC50 concentration represents the concentration at which a substance exerts half of its maximal inhibitory effect. The IC50 for each cell line was calculated by treating with a series of 10-fold dilutions of 5FU ranging from 1 nM to 10 mM. The MTT assay was used to calculate cancer cell viability after 72 hr incubation with 5FU at each concentration.
# [2] = tested on: MIA PaCa-2 pancreatic cancer cell line; experiment: MTT cell proliferation assay, MIA PaCa-2; assay type: cell-based, human
# Procedure: as §1, §2, §3, §4
# [3] = tested on: p-STAT3 (Tyr705); experiment: Expression of apoptosis related protein p-STAT3 (flow cytometry); assay type: cell-based, human; settings: MDX-124 20 μM, bortezomib 20 nM or both, 4 h; multiple myeloma cell lines
# Procedure: (§5) The effects of MDX-124, bortezomib and the combination of both agents on the expression of 2 apoptosis related proteins, p-BCL2 and p-STAT3, was assessed using flow cytometry. Aliquots of each human multiple myeloma cell line were treated with either MDX-124 (20 μM), bortezomib (20 nM) or a combination of MDX-124 and bortezomib for 4 h prior to staining with an Alexa488-labelled p-STAT3 (Tyr705, from BD Biosciences, catalogue #557814) antibody and a PE-labelled p-BCL2 ([…], BD Biosciences, catalogue #562532) antibody. Mean fluorescence intensity values for each treatment group were compared with untreated control cells.
# [4] = tested on: p-BCL2 (pS70); experiment: Expression of apoptosis related protein p-BCL2 (flow cytometry); assay type: cell-based, human; settings: MDX-124 20 μM, bortezomib 20 nM or both, 4 h; multiple myeloma cell lines
# Procedure: as §5
# [5] = tested on: Human multiple myeloma cell lines (H929, JJN3 and U266); experiment: Apoptosis assay (Annexin V and 7-AAD labelling, flow cytometry); assay type: cell-based; settings: MDX-124 20 μM, bortezomib 20 nM or both (1000:1), 48 h
# Procedure: The effect of MDX-124, bortezomib and the combination of both agents on apoptosis was assessed using Annexin V and 7-AAD labelling. Human multiple myeloma cell lines (H929, JJN3 and U266, all from DSMZ, Leibniz Institute, German Collection of Microorganisms and Cell Cultures, GmbH, Germany) were incubated with either MDX-124 (20 μM), bortezomib (20 nM, Cell Signaling Technology, MA, USA) or the combination of both agents (fixed molar ratio of 1000:1) in 1 mL of RPMI media supplemented with 10% FCS for 48 h. The percentage of apoptosis above untreated control cell levels was quantified using flow cytometry for each respective treatment group.
# [6] = tested on: interleukin-6 (IL-6); experiment: Intracellular IL-6 expression (flow cytometry); assay type: cell-based, human; settings: MDX-124 20 μM, bortezomib 20 nM or both, 24h; multiple myeloma cell lines
# Procedure: The effects of each agent, both alone and in combination, on the expression of interleukin-6 (IL-6) were assessed using flow cytometry. […] Mean fluorescence intensity values for IL-6 for each respective treatment group were compared with untreated control cells.
# [7] = tested on: triple-negative breast cancer cell line HCC1806; experiment: MTT cell proliferation assay, HCC1806
# [8] = tested on: LL/2 lung cancer cells; experiment: LL/2 murine model of lung cancer; assay type: in vivo, C57BL/6 mice; settings: LL/2, MDX-124 10 mg/kg weekly, anti-PD-1 10 mg/kg twice weekly; two-way repeated measures ANOVA/mixed-effects model
# Procedure: Drugs were administered as described above. Tumour volume was measured at days 2, 5, 8, 12 and 15, at which point the vehicle and monotherapy groups were terminated. The combination therapy group was measured again at day 19 and then terminated.
# Results were analysed using a two-way repeated measures ANOVA/mixed-effects model. […] No body weight loss was detected in this study.
# [9] = tested on: EMT6 triple-negative breast cancer cells; experiment: EMT6 mouse model of breast cancer; assay type: in vivo, BALB/c mice
# Procedure: Nine-week-old female BALB/c mice were inoculated subcutaneously with 5×10^5 EMT6 triple-negative breast cancer cells. […] Tumour volume was measured twice weekly for 3 weeks. The anti-PD-1 antibody used is the mouse antibody RMP-1-14 (Yamazaki et al., Journal of Immunology 175(3): 1586-1592, 2005); PBS was administered by intraperitoneal injection; antibodies were administered by intravenous injection.
molecule,measurement,setting,value
"O=c1[nH]cc(F)c(=O)[nH]1 [5FU, 5-fluorouracil, reference compound]",IC50,"[1]; 72 hr incubation, repeated 8 times, read-out: IC50 of 5FU (concentration at which 50% of cells were not viable)",1000 µM
same,IC50,"[2]; Homo sapiens, MIA PaCa-2, MTT, 72 hr incubation, repeated 8 times, read-out: IC50 of 5FU (concentration at which 50% of cells were not viable)",100 µM
"CC(C)C[C@H](NC(=O)[C@H](Cc1ccccc1)NC(=O)c1cnccn1)B(O)O [bortezomib, reference compound]",expression of p-STAT3 (mean fluorescence intensity vs untreated control cells),[3],reduced the expression
same,expression of p-BCL2 (mean fluorescence intensity vs untreated control cells),[4],reduced the expression
same,apoptosis (percentage above untreated control cell levels),[5],significantly induced apoptosis
same,intracellular IL-6 expression (mean fluorescence intensity vs untreated control cells),[6],modestly reduced
"N.N.[Cl][Pt][Cl] [cisplatin, reference compound]",IC50,"[7]; read-out: IC50 of cisplatin (concentration at which 50% of cells were not viable), HCC1806, MTT, repeated four times",650 nM
"Nc1ccn([C@@H]2O[C@H](CO)[C@@H](O)C2(F)F)c(=O)n1 [gemcitabine, reference compound]",IC50,"[1]; repeated three times, read-out: IC50 of gemcitabine (concentration at which 50% of cells were not viable)",20 µM
"CC(=O)O[C@H]1C(=O)[C@@]2(C)[C@H]([C@H](OC(=O)c3ccccc3)[C@]3(O)C[C@H](OC(=O)[C@H](O)[C@@H](NC(=O)c4ccccc4)c4ccccc4)C(C)=C1C3(C)C)[C@]1(OC(C)=O)CO[C@@H]1C[C@@H]2O [paclitaxel, reference compound]",IC20,"[7]; Homo sapiens, HCC1806, read-out: IC20 of paclitaxel (concentration at which 20% of cells were not viable)",0.4 nM
MDX-124: humanised IgG1 antibody against ANXA1 with a light chain of SEQ ID NO: 13 and a heavy chain of SEQ ID NO: 14,"anti-proliferative effect, single agent","[7]; HCC1806, MDX-124 alone 2.5-10 μM, vs IgG isotype control",significantly reduces cancer cell proliferation; also recorded: anti-proliferative effect
same,expression of p-STAT3 (mean fluorescence intensity vs untreated control cells),[3],reduced the expression
same,"anti-proliferative effect, single agent","[1]; PANC-1, MDX-124 alone 2.5-10 μM, 72 hours, vs IgG isotype control",significantly reduces cancer cell proliferation; also recorded: relatively potent anti-proliferative effect
same,expression of p-BCL2 (mean fluorescence intensity vs untreated control cells),[4],reduced the expression
same,apoptosis (percentage above untreated control cell levels),[5],had an impact on apoptosis
same,"anti-proliferative effect, single agent","[2]; MIA PaCa-2, MDX-124 alone 2.5-10 μM, 72 hours, vs IgG isotype control",significantly reduces cancer cell proliferation; also recorded: relatively potent anti-proliferative effect
same,intracellular IL-6 expression (mean fluorescence intensity vs untreated control cells),[6],modestly reduced
same,tumour growth compared to vehicle (and monotherapies),[8],No significant differences
B1,tumour growth compared to the vehicle control,"[9]; EMT6, MDX-001 10 mg/kg weekly, anti-PD-1 10 mg/kg twice weekly, i.v., 3 weeks",did not significantly affect tumour growth
same,adverse effects,[9]; EMT6 model,no adverse effects
same,tumour growth compared to vehicle (and monotherapies),[8],neither MDX-001 nor the anti-PD-1 antibodies displayed efficacy

# Source: patent publication US20250025553A1, “COMBINATION THERAPY FOR CANCER” (Medannex Ltd., priority 2021, published 2025)
